Experimental data published in patent publication US20240301359A1, “SYSTEM COMPRISING CISPLATIN-RESISTANT XENOGRAFT FOR NASOPHARYNGEAL CARCINOMA AND METHODS THEREOF” (THE UNIVERSITY OF HONG KONG, priority 2023, published 2024).

Columns and labels:
Assay type in all cases: in vivo
[1] = maximum tolerated dose of cisplatin in nude mice; conditions: weekly i.p.
Excerpt: A protocol for developing cisplatin-resistant PDX model from the NPC PDX models is described. NPC PDX tissues were implanted in nude mice subcutaneously (FIG. 1).

[2] = tested on: xeno76-CR cisplatin-resistant NPC PDX; assay: cisplatin treatment of xeno76-CR PDX-bearing nude mice; conditions: 3 mg/kg cisplatin weekly i.p., at harvest, ns P>0.05
Protocol: (§1) Parental xeno76 and xeno76-CR-bearing nude mice were randomized into control and treatment groups (n=4). […] The tumor volume was measured and recorded during the whole treatment period, and the tumor growth curves of xeno76 and xeno76-CR are shown in Error! […] Black arrows represent the treatment day. The xeno76 and xeno76-CR nude mice were randomized respectively on day 0 and received the first treatment. Data presented are mean (n=4) with error bars showing SEM. Statistical significance was done using paired two-tailed t-test, *** P<0.001, ns P>0.05. Furthermore, the tumors of xeno76 and xeno76-CR were also weighed and harvested for further investigation (FIG. 2C). Statistical significance was done using the unpaired two-tailed t-test, ** P<0.01, ns P>0.05.

xeno76 NPC PDX = assay: cisplatin treatment of xeno76 PDX-bearing nude mice
Protocol: as §1

[3] = body weight and side effects in ixazomib-treated nude mice
Protocol: (§2) Xeno76-CR-bearing nude mice were randomized into the control and 4 mg/kg ixazomib treatment group (n=4). Referring to FIG. 5A, black arrows represent the treatment day. Data presented are mean (n=4) with error bars showing SEM. Statistical significance was done using one-way ANOVA, **** P<0.0001.
(§3) The images of size and appearance of the xeno76-CR tumor-bearing mice between control and treatment groups on day 21 are shown in FIG. 5B. […] In FIG. 5C and FIG. 5D, data presented are means (n=4) with error bars showing the SEM. Statistical significance was done using the unpaired two-tailed t-test. Black arrows represent the treatment day.

[4] = tested on: xeno76-CR cisplatin-resistant NPC PDX; assay: ixazomib treatment of xeno76-CR-bearing nude mice
Protocol: as §2, §3

xeno76 primary NPC = assay: ixazomib sensitivity of primary NPC PDX xeno76; conditions: naïve to radio- and chemotherapy, relatively low dosage
xeno113 metastatic NPC = assay: ixazomib sensitivity of metastatic NPC PDX xeno113; conditions: relatively low dosage

SMILES: N.N.[Cl][Pt][Cl] [cisplatin]
- maximum tolerated dose [1]: 5 mg/kg
- tumor weight vs control [2]: no significant differences
- tumor growth (tumor volume) vs control (xeno76 NPC PDX; 3 mg/kg cisplatin in saline weekly i.p., n=4, *** P<0.001): significantly inhibited
- tumor weight vs control (xeno76 NPC PDX; 3 mg/kg cisplatin weekly i.p., at harvest): significantly lighter than the xeno76 control group

SMILES: CC(C)C[C@H](NC(=O)CNC(=O)c1cc(Cl)ccc1Cl)B(O)O [ixazomib]
- observable side effects or weight loss ([3]; 4 mg/kg ixazomib, xeno76-CR bearing nude mice): did not induce any observable side effects or weight loss
- side effects and body weight loss ([3]; all the tested animals, summary statement): no side effects and body weight loss
- sensitivity to ixazomib ([4]; cisplatin-resistant NPC (xeno76-CR), relatively low dosage, summary statement): sensitive to ixazomib
- tumor weight at the endpoint of the experiment ([4]; xeno76-CR, 4 mg/kg ixazomib, n=4 mean, control group 0.52 g, * P<0.05): 0.21 g
- tumor growth (tumor volume) vs control ([4]; xeno76-CR, 4 mg/kg ixazomib, three-week treatment, n=4, **** P<0.0001): effectively inhibited xeno76-CR growth
- sensitivity to ixazomib (xeno76 primary NPC): sensitive to ixazomib
- sensitivity to ixazomib (xeno113 metastatic NPC): sensitive to ixazomib
